Several values for one entry are separate records, joined by “and”; a condition that tells them apart may be missing. Equal entries are not always repeated. Entries after “also recorded” stand apart in the source; their conditions may differ. Where two headings read alike, the source gives them in different places.
Columns and labels:
[1] = test system: Moloney murine leukemia virus (MLV); assay: anti-Moloney murine leukemia virus (MLV) plaque test; format: cell-based; settings: anti-MLV plaque count
[2] = test system: SC-1 cells; assay: toxicity TD50 reported with the anti-MLV test; settings: Table IV
[3] = test system: 2.2.15 cells; assay: toxicity analysis, neutral red dye uptake in 2.2.15 cells; settings: triplicate, ± standard deviation
[4] = test system: calf thymus DNA; assay: ethidium displacement assay, drug-DNA binding constant, calf thymus DNA; settings: relative to ethidium 10^7 M^-1, average of repeat measurements
[5] = test system: HIV-1; settings: for Anti-HIV-1 Activity (National Cancer Institute Designation): inactive, moderate or active; for INFECTED RESPONSE % of Control: Table IX
[6] = test system: HBV; assay: inhibition of HBV DNA replication in 2.2.15 cell cultures; format: cell-based; settings: for INT[…] DNA MONO.: 24 hours following the 9th day of treatment; for INT[…] DNA MONO. / HBV VIRION DNA DAY 0 / HBV VIRION DNA DAY 6 / HBV VIRION DNA DAY 9: single well; for effect on HBV replication (in words): tested at 50 and 10 μM, compared with 2',3'-ddC
[7] = solubility in DMSO, MeOH, H2O; format: physicochemical
[8] = test system: poly(dA-dT); assay: ethidium displacement assay, poly(dA-dT); settings: relative to ethidium 9.5 × 10^6 M^-1, average of repeat measurements
[9] = test system: T4 lymphocytes (CEM cell line); assay: NCI anti-HIV screen, toxicity control in uninfected cells; format: cell-based; settings: Table IX
[10] = 50 μM, zero = undetectable, cutoff 0.1 pg/ml, dihydrochloride
[11] = 10 μM, listed as Compound 14, dihydrochloride
[12] = 50 μM, listed as Compound 14, dihydrochloride

Cl.Cl.Cn1cc(NC(=O)c2nc(NC(=O)/C=C\C(=O)Nc3cn(C)c(C(=O)Nc4cn(C)c(C(=O)NCCC(=N)N)n4)n3)cn2C)nc1C(=O)NCCC(=N)N [Compound 39, Bis-Lexitropsin]
Activity, MIC50 [1]: > 100.00 µg/mL | Toxicity, TD50 [2]: > 100.00 ug/mL^-1

Cc1cn([C@H]2C[C@H](N=[N+]=[N-])[C@@H](CO)O2)c(=O)[nH]c1=O [AZT]
Activity, MIC50 [1]: 0.0014 µg/mL | Toxicity, TD50 [2]: > 100.00 ug/mL^-1

Cl.Cl.Cn1cc(NC(=O)c2cc(NC(=O)CCC(=O)Nc3cc(C(=O)Nc4cc(C(=O)NCCC(=N)N)n(C)c4)n(C)c3)cn2C)cc1C(=O)NCCC(=N)N [Compound 5]
NEUTRAL RED DYE UPTAKE ([3]; 10 μg/ml): 99 ± 2 % OF CONTROL | NEUTRAL RED DYE UPTAKE ([3]; 30 μg/ml): 100 ± 1 % OF CONTROL | DNA Binding Constant [4]: 7.2e+07 M⁻¹ | Anti-HIV-1 Activity (National Cancer Institute Designation) [5]: Moderate

Cl.Cl.Cn1cc(NC(=O)c2cc(NC(=O)CC(=O)Nc3cc(C(=O)Nc4cc(C(=O)NCCC(N)=O)n(C)c4)n(C)c3)cn2C)cc1C(=O)NCCC(N)=O [Compound 4, N,N'-Di(1-methyl-2-[1-methyl-2-carboxamido(3-proprionamide)-4-pyrrole]-4-pyrrolyl)malonamide dihydrochloride]
NEUTRAL RED DYE UPTAKE ([3]; 10 μg/ml): 99 ± 1 % OF CONTROL | NEUTRAL RED DYE UPTAKE ([3]; 100 μg/ml): 100 ± 1 % OF CONTROL | NEUTRAL RED DYE UPTAKE ([3]; 300 μg/ml): 99 ± 1 % OF CONTROL | DNA Binding Constant [4]: 3.6e+07 M⁻¹ | INT[…] DNA MONO. ([6]; 10 μM, dihydrochloride): 2.3 pg/μg CELL DNA and 2.8 pg/μg CELL DNA and 2.1 pg/μg CELL DNA | HBV VIRION DNA DAY 0 ([6]; 10 μM, dihydrochloride): 77 pg/ml CULTURE MEDIUM and 61 pg/ml CULTURE MEDIUM and 64 pg/ml CULTURE MEDIUM | HBV VIRION DNA DAY 6 ([6]; 10 μM, dihydrochloride): 52 pg/ml CULTURE MEDIUM and 55 pg/ml CULTURE MEDIUM and 96 pg/ml CULTURE MEDIUM and 59 pg/ml CULTURE MEDIUM | HBV VIRION DNA DAY 9 ([6]; 10 μM, dihydrochloride): 73 pg/ml CULTURE MEDIUM and 81 pg/ml CULTURE MEDIUM and 62 pg/ml CULTURE MEDIUM and 50 pg/ml CULTURE MEDIUM | INT[…] DNA MONO. ([6]; 50 μM, dihydrochloride): 2.5 pg/μg CELL DNA and 2.8 pg/μg CELL DNA and 2.1 pg/μg CELL DNA and 2.4 pg/μg CELL DNA | HBV VIRION DNA DAY 0 ([6]; 50 μM, dihydrochloride): 63 pg/ml CULTURE MEDIUM and 66 pg/ml CULTURE MEDIUM and 78 pg/ml CULTURE MEDIUM and 74 pg/ml CULTURE MEDIUM | HBV VIRION DNA DAY 6 ([6]; 50 μM, dihydrochloride): 86 pg/ml CULTURE MEDIUM and 70 pg/ml CULTURE MEDIUM and 64 pg/ml CULTURE MEDIUM and 88 pg/ml CULTURE MEDIUM | HBV VIRION DNA DAY 9 [6, 10]: 97 pg/ml CULTURE MEDIUM and 65 pg/ml CULTURE MEDIUM and 61 pg/ml CULTURE MEDIUM and 85 pg/ml CULTURE MEDIUM

Cl.Cl.Cn1cc(NC(=O)c2cc(NC(=O)Nc3cc(C(=O)Nc4cc(C(=O)NCCC(=N)N)n(C)c4)n(C)c3)cn2C)cc1C(=O)NCCC(=N)N [Compound 3, N,N'-Di(1-methyl-2-[1-methyl-2-carboxamido(3-propionamidine)-4-pyrrole]-4-pyrrolyl)urea dihydrochloride]
NEUTRAL RED DYE UPTAKE ([3]; 10 μg/ml): 99 ± 1 % OF CONTROL | NEUTRAL RED DYE UPTAKE ([3]; 30 μg/ml): 99 ± 1 % OF CONTROL | NEUTRAL RED DYE UPTAKE ([3]; 100 μg/ml): 99 ± 2 % OF CONTROL | NEUTRAL RED DYE UPTAKE ([3]; 300 μg/ml): 82 ± 2 % OF CONTROL | DNA Binding Constant [4]: 5.6e+07 M⁻¹ | EC50 ([5]; Table XI): 11.9 µM | Anti-HIV-1 Activity (National Cancer Institute Designation) [5]: Moderate | INT[…] DNA MONO. ([6]; 10 μM, dihydrochloride): 2.8 pg/μg CELL DNA and 2.2 pg/μg CELL DNA and 2.6 pg/μg CELL DNA and 2.5 pg/μg CELL DNA | HBV VIRION DNA DAY 0 ([6]; 10 μM, dihydrochloride): 57 pg/ml CULTURE MEDIUM and 64 pg/ml CULTURE MEDIUM and 74 pg/ml CULTURE MEDIUM and 60 pg/ml CULTURE MEDIUM | HBV VIRION DNA DAY 9 ([6]; 10 μM, dihydrochloride): 69 pg/ml CULTURE MEDIUM and 74 pg/ml CULTURE MEDIUM and 94 pg/ml CULTURE MEDIUM and 92 pg/ml CULTURE MEDIUM | INT[…] DNA MONO. ([6]; 50 μM, dihydrochloride): 2.9 pg/μg CELL DNA and 2.2 pg/μg CELL DNA and 2.4 pg/μg CELL DNA | HBV VIRION DNA DAY 0 ([6]; 50 μM, dihydrochloride): 58 pg/ml CULTURE MEDIUM and 68 pg/ml CULTURE MEDIUM and 81 pg/ml CULTURE MEDIUM | HBV VIRION DNA DAY 6 ([6]; 50 μM, dihydrochloride): 67 pg/ml CULTURE MEDIUM and 44 pg/ml CULTURE MEDIUM and 78 pg/ml CULTURE MEDIUM and 76 pg/ml CULTURE MEDIUM | HBV VIRION DNA DAY 9 [6, 10]: 16 pg/ml CULTURE MEDIUM and 13 pg/ml CULTURE MEDIUM and 19 pg/ml CULTURE MEDIUM and 10 pg/ml CULTURE MEDIUM | effect on HBV replication (in words) [6]: weak inhibitor | Solubility in DMSO [7]: good | Solubility in H2O ([7]; H2O): good

Cn1cc(NC(=O)c2cc(NC(=O)CNC(=N)N)cn2C)cc1C(=O)NCCC(=N)N [Compound 1, reference compound]
DNA Binding Constant [4]: 1.9e+07 M⁻¹ | Kapp [8]: 9.4e+07 M⁻¹

Cl.Cl.Cn1cc(NC(=O)c2cc(NC(=O)/C=C\C(=O)Nc3cc(C(=O)Nc4cc(C(=O)NCCC(=N)N)n(C)c4)n(C)c3)cn2C)cc1C(=O)NCCC(=N)N [Compound 22b]
NEUTRAL RED DYE UPTAKE ([3]; 10 μg/ml): 99 ± 2 % OF CONTROL | NEUTRAL RED DYE UPTAKE ([3]; 30 μg/ml): 98 ± 1 % OF CONTROL | NEUTRAL RED DYE UPTAKE ([3]; 100 μg/ml): 99 ± 1 % OF CONTROL | NEUTRAL RED DYE UPTAKE ([3]; 300 μg/ml): 85 ± 2 % OF CONTROL | INFECTED RESPONSE % of Control ([5]; dose 3.02 × 10^-4 Molar): -0.29 % of Control | INFECTED RESPONSE % of Control ([5]; dose 3.03 × 10^-5 Molar): 114.32 % of Control | INFECTED RESPONSE % of Control ([5]; dose 3.03 × 10^-6 Molar): 44.03 % of Control | INFECTED RESPONSE % of Control ([5]; dose 3.04 × 10^-7 Molar): 28.75 % of Control | INFECTED RESPONSE % of Control ([5]; dose 9.54 × 10^-5 Molar): 84.02 % of Control | INFECTED RESPONSE % of Control ([5]; dose 9.57 × 10^-4 Molar): -0.14 % of Control | INFECTED RESPONSE % of Control ([5]; dose 9.59 × 10^-6 Molar): 115.19 % of Control | INFECTED RESPONSE % of Control ([5]; dose 9.61 × 10^-7 Molar): 32.14 % of Control | Anti-HIV-1 Activity (National Cancer Institute Designation) [5]: Active | Kapp [8]: 3.8e+07 M⁻¹ | INT[…] DNA MONO. [6, 11]: 2.5 pg/μg CELL DNA and 2.2 pg/μg CELL DNA and 2.3 pg/μg CELL DNA and 2.1 pg/μg CELL DNA | HBV VIRION DNA DAY 0 [6, 11]: 50 pg/ml CULTURE MEDIUM and 61 pg/ml CULTURE MEDIUM and 55 pg/ml CULTURE MEDIUM and 67 pg/ml CULTURE MEDIUM | HBV VIRION DNA DAY 6 [6, 11]: 110 pg/ml CULTURE MEDIUM and 120 pg/ml CULTURE MEDIUM and 77 pg/ml CULTURE MEDIUM and 87 pg/ml CULTURE MEDIUM | HBV VIRION DNA DAY 9 [6, 11]: 21 pg/ml CULTURE MEDIUM and 25 pg/ml CULTURE MEDIUM and 22 pg/ml CULTURE MEDIUM and 20 pg/ml CULTURE MEDIUM | INT[…] DNA MONO. [6, 12]: 1.9 pg/μg CELL DNA and 2.0 pg/μg CELL DNA and 2.3 pg/μg CELL DNA | HBV VIRION DNA DAY 0 [6, 12]: 71 pg/ml CULTURE MEDIUM and 89 pg/ml CULTURE MEDIUM and 51 pg/ml CULTURE MEDIUM and 92 pg/ml CULTURE MEDIUM | HBV VIRION DNA DAY 6 [6, 12]: 26 pg/ml CULTURE MEDIUM and 27 pg/ml CULTURE MEDIUM and 36 pg/ml CULTURE MEDIUM and 37 pg/ml CULTURE MEDIUM | HBV VIRION DNA DAY 9 ([6]; 50 μM, zero = undetectable, cutoff 0.1 pg/ml): 1 pg/ml CULTURE MEDIUM | effect on HBV replication (in words) ([6]; listed as 14, dihydrochloride): just slightly less than that observed with the control; also recorded: potent inhibitors | Solubility in DMSO [7]: good | Solubility in MeOH ([7]; MeOH): good | […] % of Control ([9]; dose 3.02 × 10^-4 Molar): -0.86 % of Control | […] % of Control ([9]; dose 3.03 × 10^-5 Molar): 112.05 % of Control | […] % of Control ([9]; dose 3.03 × 10^-6 Molar): 103.19 % of Control | […] % of Control ([9]; dose 3.04 × 10^-7 Molar): 100.16 % of Control | […] % of Control ([9]; dose 9.54 × 10^-5 Molar): 94.16 % of Control | […] % of Control ([9]; dose 9.57 × 10^-4 Molar): 5.40 % of Control | […] % of Control ([9]; dose 9.59 × 10^-6 Molar): 112.20 % of Control | […] % of Control ([9]; dose 9.61 × 10^-7 Molar): 100.02 % of Control
